Key:
[1] = tested on: T-Rex 293 cell line SC3 cells lacking increased expression of androgen receptor protein; test: Cellular growth inhibition, T-Rex 293 SC3 cells without doxycycline, CellTiter-Glo; assay type: cell-based; conditions: T-Rex 293 SC3 cells not exposed to doxycycline, CellTiter-Glo 2.0
Summary of the method: (§1)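 Doxycycline-inducible androgen receptor T-Rex 293 clone SC3, seeded at 2500/well in phenol red-free DMEM with 10% charcoal-dextran FBS, without doxycycline or with 10 ng/mL to induce receptor. Compound added after 24 h (0.5% DMSO), 72 h at 37 °C; CellTiter-Glo 2.0 luminescence, GI50 by four-parameter fit.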

[2] = tested on: T-Rex 293 cell line SC3 cells having increased expression of androgen receptor protein due to exposure to doxycycline; test: Cellular growth inhibition, T-Rex 293 SC3 cells with doxycycline (androgen receptor induced), CellTiter-Glo; assay type: cell-based; conditions: T-Rex 293 SC3 cells with 10 ng/mL doxycycline (increased androgen receptor expression)
Summary of the method: as §1

T47D cells = test: Cellular growth inhibition assay for T47D cells, CellTiter-Glo; assay type: cell-based, human; conditions: 72 hours treatment, CellTiter-Glo 2.0 cell viability
Summary of the method: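 Cells are plated at 3000/well and allowed 24 h before treatment. Test compound in medium containing 0.5% DMSO is then added, with DMSO-only wells as negative control, and plates are incubated 72 h at 37 °C. ATP luminescence (CellTiter-Glo 2.0) is then fitted to four parameters to derive GI50.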

VCaP cells = test: Cellular growth inhibition assay for VCaP cells, CellTiter-Glo; assay type: cell-based, human; conditions: 72 hours treatment, CellTiter-Glo 2.0
Summary of the method: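 GI50 values come from four-parameter curve fits of luminescence data normalized to a zero baseline. Compound, in medium with 0.5% DMSO, was added one day after plating and left for 72 h before CellTiter-Glo 2.0 addition.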

SMILES	GI50 ([1]; 72 h) [nM]	GI50 ([2]; 72 h) [nM]	GI50 (T47D cells; Homo sapiens, T47D, 72 h) [nM]	GI50 (VCaP cells; Homo sapiens, VCaP, 72 h) [nM]	GI50 ([1]; 72 hours) [nM]	GI50 ([2]; 72 hours) [nM]	GI50 (T47D cells) [nM]	GI50 (VCaP cells) [nM]
Cc1sc2c(c1C)C(c1ccc(CC[C@H]3CC[C@]4(CCCN(c5ncc(C(=O)N[C@H]6C(C)(C)[C@H](Oc7ccc(C#N)c(Cl)c7)C6(C)C)cn5)C4)C3)cc1)=N[C@H](Cc1ncco1)c1nnc(C)n1-2 [Compound I-251]	> 3000	< 500	< 500	< 500				
Cc1sc2c(c1C)C(c1ccc([C@H]3C[C@@H]([C@@H]4CCN(c5ncc(C(=O)N[C@H]6C(C)(C)[C@H](Oc7ccc(C#N)c(Cl)c7)C6(C)C)cn5)C4)C3)cc1)=N[C@@H](Cc1ncco1)c1nnc(C)n1-2 [Compound I-413]	> 3000	> 3000	> 3000	> 3000				
Cc1sc2c(c1C)C(c1ccc(CCCC3CCN(c4ncc(C(=O)N[C@H]5C(C)(C)[C@H](Oc6ccc(C#N)c(Cl)c6)C5(C)C)cn4)CC3)cc1)=NC(Cc1ncco1)c1nnc(C)n1-2 (stereo partly drawn) [Compound I-133]	500 to 1500	< 500	< 500	< 500				
Cc1sc2c(c1C)C(c1ccc(CCN3CCC4(CCCN(c5ncc(C(=O)N[C@H]6C(C)(C)[C@H](Oc7ccc(C#N)c(Cl)c7)C6(C)C)cn5)C4)C3)cc1)=N[C@@H](Cc1ncco1)c1nnc(C)n1-2 (stereo partly drawn) [Compound I-147]	500 to 1500	< 500	< 500	< 500				
Cc1sc2c(c1C)C(c1ccc(OC3CC4(CCN(c5ncc(C(=O)N[C@H]6C(C)(C)[C@H](Oc7ccc(C#N)c(Cl)c7)C6(C)C)cn5)CC4)C3)cc1)=N[C@H](Cc1ncco1)c1nnc(C)n1-2 [Compound I-50, N-[3-(3-chloro-4-cyano-phenoxy)-2,2,4,4-tetramethyl-cyclobutyl]-2-[2-[4-[(9R)-4,5,13-trimethyl-9-(oxazol-2-ylmethyl)-3-thia-1,8,11,12-tetrazatricyclo[8.3.0.02,6]trideca-2(6),4,7,10,12-pentaen-7-yl]phenoxy]-7-azaspiro[3.5]nonan-7-yl]pyrimidine-5-carboxamide]	> 3000	< 500	> 3000	> 3000				
Cc1sc2c(c1C)C(c1ccc(C[C@H]3C[C@]4(CCCN(c5ncc(C(=O)N[C@H]6C(C)(C)[C@H](Oc7ccc(C#N)c(Cl)c7)C6(C)C)cn5)C4)C3)cc1)=N[C@@H](C)c1nnc(C)n1-2 [Compound I-394]	> 3000	< 500	< 500	< 500				
CC[C@@H]1N=C(c2ccc(CC3CCC4(C3)CN(c3ncc(C(=O)N[C@H]5C(C)(C)[C@H](Oc6ccc(C#N)c(Cl)c6)C5(C)C)cn3)CCO4)cc2)c2c(sc(C)c2C)-n2c(C)nnc21 (stereo partly drawn) [Compound I-614]					> 3000	< 500	< 500	< 500
Cc1sc2c(c1C)C(c1ccc(CCCC3CC4(C3)CN(c3ncc(C(=O)N[C@H]5C(C)(C)[C@H](Oc6ccc(C#N)c(Cl)c6)C5(C)C)cn3)C4)cc1)=N[C@@H](C)c1nnc(C)n1-2 [Compound I-365]	> 3000	< 500	< 500	< 500				
Cc1sc2c(c1C)C(c1ccc(O[C@H]3COC4(C3)CN(c3ncc(C(=O)N[C@H]5C(C)(C)[C@H](Oc6ccc(C#N)c(Cl)c6)C5(C)C)cn3)C4)cc1)=N[C@@H](Cc1ncco1)c1nnc(C)n1-2 [Compound I-181]	< 500	< 500	< 500	< 500				
CC[C@@H]1N=C(c2ccc(C#CC3CC4(C3)CN(c3cnc(C(=O)N[C@H]5C(C)(C)[C@H](Oc6ccc(C#N)c(Cl)c6)C5(C)C)cn3)C4)cc2)c2c(sc(C)c2C)-n2c(C)nnc21 [Compound I-583]	500 to 1500	< 500	< 500	< 500				
Cc1sc2c(c1C)C(c1ccc(O[C@H]3CC[C@@]4(CCN(c5ncc(C(=O)N[C@H]6C(C)(C)[C@H](Oc7ccc(C#N)c(Cl)c7)C6(C)C)cn5)C4)C3)cc1)=N[C@@H](Cc1ncco1)c1nnc(C)n1-2 [Compound I-176]	500 to 1500	< 500	< 500	< 500				
Cc1sc2c(c1C)C(c1ccc(C#C[C@H]3C[C@@]4(CCCN(c5ncc(C(=O)N[C@H]6C(C)(C)[C@H](Oc7ccc(C#N)c(Cl)c7)C6(C)C)cn5)C4)C3)cc1)=N[C@@H](C)c1nnc(C)n1-2 [Compound I-378]	> 3000	< 500	> 3000	< 500				
Cc1sc2c(c1C)C(c1ccc(O[C@H]3C[C@]4(CCCN(c5ncc(C(=O)N[C@H]6C(C)(C)[C@H](Oc7ccc(C#N)c(Cl)c7)C6(C)C)cn5)C4)C3)cc1)=N[C@@H](C)c1nnc(C)n1-2 [Compound I-410]	> 3000	< 500	> 3000	> 3000				
[2H]C([2H])(c1ccc(C2=N[C@@H](Cc3ncco3)c3nnc(C)n3-c3sc(C)c(C)c32)cc1)N1CC[C@@]2(CCCN(c3ncc(C(=O)N[C@H]4C(C)(C)[C@H](Oc5ccc(C#N)c(Cl)c5)C4(C)C)cn3)C2)C1 [Compound I-433]	< 500	< 500	500 to 1500	< 500				
Cc1sc2c(c1C)C(c1ccc(OC3CCN(C4CCN(c5ncc(C(=O)N[C@H]6C(C)(C)[C@H](Oc7ccc(C#N)c(Cl)c7)C6(C)C)cn5)CC4)CC3)cc1)=N[C@@H](C)c1nnc(C)n1-2 [Compound I-325]	1500 to 3000	< 500	500 to 1500	> 3000				
Cc1sc2c(c1C)C(c1ccc(N3CCC(C(=O)NCc4ncc(C(=O)N[C@H]5C(C)(C)[C@H](Oc6ccc(C#N)c(Cl)c6)C5(C)C)cn4)CC3)cc1)=N[C@@H](Cc1ncco1)c1nnc(C)n1-2 [Compound I-329]	500 to 1500	< 500	< 500	< 500				
Cc1sc2c(c1C)C(c1ccc(N3CCC4(CC3)CCN(c3ncc(C(=O)N[C@H]5C(C)(C)[C@H](Oc6ccc(C#N)c(Cl)c6)C5(C)C)cn3)CC4)cc1)=N[C@@H](Cc1ncco1)c1nnc(C)n1-2 [Compound I-645]	> 3000	< 500	< 500	< 500				
Cc1sc2c(c1C)C(c1ccc(CC3CCN(c4ncc(C(=O)N[C@H]5C(C)(C)[C@H](Oc6ccc(C#N)c(Cl)c6)C5(C)C)cn4)CC3)cc1)=N[C@@H](C)c1nnc(C)n1-2 [Compound I-557]	< 500	< 500	> 3000	< 500				
Cc1sc2c(c1C)C(c1ccc(OCC[C@H]3CCCN(c4ncc(C(=O)N[C@H]5C(C)(C)[C@H](Oc6ccc(C#N)c(Cl)c6)C5(C)C)cn4)C3)cc1)=N[C@@H](Cc1ncco1)c1nnc(C)n1-2 [Compound I-301]	500 to 1500	< 500	< 500	< 500				
CC[C@@H]1N=C(c2ccc(N3CC(CC4CN(c5cnc(C(=O)N[C@H]6C(C)(C)[C@H](Oc7ccc(C#N)c(Cl)c7)C6(C)C)cn5)C4)C3)cc2)c2c(sc(C)c2C)-n2c(C)nnc21 [Compound I-607]	> 3000	< 500	< 500	> 3000				
Cc1sc2c(c1C)C(c1ccc(OC3CC4(CCN(c5ncc(C(=O)N[C@H]6C(C)(C)[C@H](Oc7ccc(C#N)c(Cl)c7)C6(C)C)cn5)CC4)C3)cc1)=N[C@@H](CC#N)c1nnc(C)n1-2 [Compound I-229, N-[3-(3-chloro-4-cyano-phenoxy)-2,2,4,4-tetramethyl-cyclobutyl]-2-[2-[4-[(9S)-9-(cyanomethyl)-4,5,13-trimethyl-3-thia-1,8,11,12-tetrazatricyclo[8.3.0.02,6]trideca-2(6),4,7,10,12-pentaen-7-yl]phenoxy]-7-azaspiro [3.5]nonan-7-yl]pyrimidine-5-carboxamide]	> 3000	< 500	> 3000	< 500				

From patent publication US20260062422A1 (Halda Therapeutics OpCo, Inc., priority 2022, published 2026)
